From patent EP0257993B1, “Nucleic acid fragment encoding herbicide resistant plant acetolactate synthase” (priority 1986, dated 1988) come the findings set out here.

In one assay the test system is tobacco plant cells. The experiment in a line: Herbicide resistance in plant cells transformed with site specific mutant sugarbeet ALS gene. The settings on record: 2x10^5 starting plant cells; for Kanamycin^R: kanamycin at 50ppm; for Chlorsulfuron^R: chlorsulforon at 2ppb. Format: cell-based. The method, then: Introduction of the ALS genes into herbicide sensitive tobacco and sugarbeet, by co-cultivation of the plant cells with A. tumefaciens carrying the ALS genes in the binary vector, was performed as described in EXAMPLE I and EXAMPLE II. Herbicide resistant transformants were obtained with three of the four mutant sugarbeet ALS genes. The frequency of obtaining herbicide resistant transformants was lower than that for kanamycin resistant transformants, and also lower than the frequency of herbicide resistant transformants obtained when the tobacco SURB-Hra gene was used. […] This may reflect either insufficient nucleotide regulatory sequences upstream or downstream of the mutant sugarbeet ALS genes in the DNA fragments used or poor utilization of sugarbeet nucleotide regulatory sequences in tobacco or both. […]
Gene introductions were done by standard co-cultivation method. […] Selection was with chlorsulforon at 2ppb or kanamycin at 50ppm.

The test system of assay [1] is Sensitive N. tabacum Cells. The experiment in a line: Co-cultivation of N. tabacum protoplasts with A. tumefaciens, colony formation on selective media. Format: cell-based, Nicotiana tabacum var. Wisconsin 38. Particulars: for Number of Colony Forming Units derived from 10^5 Protoplast Equivalents One Month after Co-cultivation: Table 7. Here is the method: Sterile tobacco (Nicotiana tabacum var. Wisconsin 38) plants were cultured from 1 cm apical or auxillary explants on OMS Medium in Magenta Boxes under a cycle of a 16 hour light period (6,000-8,000 lux) followed by an 8 hour dark period. When the plants were 5-7 weeks old, fully expanded leaves (3-6 leaves down from the apex) were removed, and two leaves each were placed, top surface down, on 20 mL of protoplast isolation medium in a 100 x 25 mm petri dish. The leaves were then submerged and finely divided with a sharp surgical blade. The midrib was held and the cuts were made outward from it towards the leaf margin at approximately 2 mm intervals. The petri dishes were then sealed with parafilm and the macerated tissue incubated overnight (14-17 hours) in darkness at 27-29°C with gentle gyrotory agitation (20-25 rpm).
The glass tubing was placed in a Babcock bottle, and the cheesecloth was wetted with K3/S(1) Medium. The digested leaf tissue from two petri dishes was carefully poured into the funnel. The cheesecloth was rinsed and expressed into the bottle. The loaded bottles were topped with K3/S(1) Medium, covered with foil and centrifuged at approximately 100 x g for 10 minutes. The floating protoplasts (1-2 mL) were collected with a 1 mL serological pipette and placed in 20 mL of K3/S(1) Medium in another Babcock bottle. After resuspending the protoplasts by gently swirling, the Babcock bottles were topped and centrifuged as before. The floating protoplasts (1-2 mL) were collected as described above and placed in 30 mL of K3/G(1) Medium. The protoplasts were counted in a hemacytometer, and the volume was adjusted to give 1 x 10^+5 protoplasts/mL. 5 mL aliquots of the protoplasts were plated in petri dishes [100 x 20 mm tissue-culture petri dishes (Corning); these dishes were used in all subsequent protoplast manipulations] and cultured in darkness.
When the optical density (at 550 nm) of the A. tumefaciens cultures was 0.6 (log phase culture), approximately 6 hours after dilution, the bacteria were added to plant cells at a multiplicity of approximately 50 bacteria/plant cell (an optical density of 1.0 at 550 nm = 1.4 x 10^9 bacteria). The bacteria and plant cell mixture was co-cultivated for 66 hours at 24°C in low light (approximately 500 lux). Non-transformed protoplast controls were incubated similarly, but without agrobacteria. The following protocol is carried out for each co-cultivation (transformed cells with different agrobacteria, as well as non-transformed cells).
Co-cultivation was terminated by adding 20 mL of a 1:1 mixture of K3/G(2) Medium:C Medium supplemented with 500 mg/liter of cefotaxime (to select against the agrobacteria) to 5 mL of the co-cultivation mixture. The co-cultivated cells were gently and thoroughly resuspended in the new medium by mixing with a 5 or 10 mL serological pipette. The cell density was 2 x 10^4 protoplast equivalents/mL (protoplast equivalents = initial protoplasts, assuming 100% recovery and cell survival) and the osmoticum was 0.35 M. Three 5 mL aliquots of each culture were dispensed into fresh petri dishes.
From this juncture until the cells were embedded in solid medium, the cells were cultured in low light (500-1500 lux) without motion and were aseptically transferred to different media. […] For these transfers, the contents of each plate were collected with a 5 mL serological pipette, placed in separate 15 mL polystyrene conical centrifuge tubes and centrifuged at approximately 50 x g for 5-10 minutes. The supernatant fluid was removed with a pipette without disrupting the loose pellet. Pellets of co-cultivated cells from each plate were then gently resuspended in the appropriate fresh medium.
Each of these cultures was returned to the petri dishes from which they were taken; in this way not all cells needed to be pelleted to effect a medium exchange with minimal cell loss.

Another assay has as its system alfalfa callus. The experiment in a line: Resistant growth of transformed alfalfa callus and tissue. It counts as cell-based, Medicago sativa cv. Rangelander. The method, then:
These explants were dipped into a log phase Agrobacterium culture prepared as described in EXAMPLE I, transferred to fresh co-cultivation plates, and cultured at 24°C with 16 hr. days for 3 days.
The bacteria were killed by washing the explants for 3 hrs. with gentle agitation in washing media, and cultured on fresh selection plates.
The explants were subcultured every 3-4 weeks. […] When callus became more organized, (areas are darker green and more compact) it was transferred to fresh maturation media.

Setting [2] is: Gene Origin Sugarbeet, ala(122)-pro.
Setting [3] is: Gene Origin Sugarbeet, pro(197)-ala/trp(591)-leu.
Setting [4] is: Gene Origin Sugarbeet, pro(197)-ala.
Setting [5] is: Gene Origin Sugarbeet, trp(591)-leu.
Where [6] appears, read: Gene Origin Tobacco, pro(197)-ala/trp(591)-leu.

Consider `NC[C@H]1O[C@H](O[C@H]2[C@H](O)[C@@H](O[C@H]3O[C@H](CO)[C@@H](O)[C@H](N)[C@H]3O)[C@H](N)C[C@@H]2N)[C@H](O)[C@@H](O)[C@@H]1O` [Kanamycin], for which the “Kanamycin^R” value is 415 with tobacco plant cells (setting [2]); 1362 with tobacco plant cells (setting [3]); 1073 with tobacco plant cells (setting [4]); 1080 with tobacco plant cells (setting [5]); 1083 with tobacco plant cells (setting [6]). Further, the “Number of colony forming units derived from 10^5 protoplast equivalents one month after co-cultivation” value in assay [1] (Table 4, N.t. (non-cocultured control plant cells), Kanamycin 50 µg/mL) is reported as 0; in assay [1] (Table 4, N.t./P145 (pAGS145, herbicide-sensitive ALS from phage clone 1), Kanamycin 50 µg/mL) it was 5.9 x 10^2; in assay [1] (Table 5, N.t. (non-cocultured control plant cells), Kanamycin 50 µg/mL) it was 0; in assay [1] (Table 5, N.t./P112 (pAGS112, kanamycin resistance vector), Kanamycin 50 µg/mL) it was 2.5 x 10^3; in assay [1] (Table 5, N.t./p152 (pAGS152, phage clone 3), Kanamycin 50 µg/mL), 6.2 x 10^2. For the same molecule, the “Number of Colony Forming Units derived from 10^5 Protoplast Equivalents One Month after Co-cultivation” value in assay [1] (N.t. (non co-cultured plant cells), Kanamycin 50 ug/ml) amounted to 0; in assay [1] (N.t./P312 (pAGS312, C3 subclone, φ31 orientation 1), Kanamycin 50 ug/ml), 65; in assay [1] (N.t./p152 (pAGS152, S4/Hra subclone), Kanamycin 50 ug/ml) it was 88; in assay [1] (N.t./p313 (pAGS313, C3 subclone, φ31 orientation 2), Kanamycin 50 ug/ml) it was 48; in assay [1] (N.t./p351 (pAGS351, C3 subclone, φ35), Kanamycin 50 ug/ml), 139; in assay [1] (N.t./p381 (pAGS381, C3 subclone, φ38), Kanamycin 50 ug/ml) it was 87. For the same molecule, in the assay on alfalfa callus (kanamycin at 100mg/L), the “explants that developed callus resistant to kanamycin” value was “Less than 1%”.
As to `COc1nc(C)nc(NC(=O)NS(=O)(=O)c2ccccc2Cl)n1` [chlorsulfuron], the “Chlorsulfuron^R” value is listed as 0 with tobacco plant cells (setting [2]); 91 in the assay with tobacco plant cells (setting [3]); 35 in the assay on tobacco plant cells (setting [4]); 2 in the assay with tobacco plant cells (setting [5]); 698 in the assay on tobacco plant cells (setting [6]). In addition, the “chlorsulfuron resistance conferred in transformed tobacco calluses” value in assay [1] (6.3 kb DNA fragment (SURA-C3)) is reported as 2 ppb. For the same molecule, the “Number of colony forming units derived from 10^5 protoplast equivalents one month after co-cultivation” value in assay [1] (Table 4, N.t. (non-cocultured control plant cells), Chlorsulfuron 2 ng/mL) was 0; in assay [1] (Table 4, N.t./P145 (pAGS145, herbicide-sensitive ALS from phage clone 1), Chlorsulfuron 2 ng/mL), 0; in assay [1] (Table 5, N.t. (non-cocultured control plant cells), Chlorsulfuron 2 ng/mL), 0; in assay [1] (Table 5, N.t./P112 (pAGS112, kanamycin resistance vector), Chlorsulfuron 2 ng/mL), 0; in assay [1] (Table 5, N.t./p152 (pAGS152, phage clone 3), Chlorsulfuron 2 ng/mL), 6.5 x 10^2. For the same molecule, the “Number of Colony Forming Units derived from 10^5 Protoplast Equivalents One Month after Co-cultivation” value came to 0 in assay [1] (N.t. (non co-cultured plant cells), Chlorsulfuron 2 ng/ml); 0 in assay [1] (N.t./P312 (pAGS312, C3 subclone, φ31 orientation 1), Chlorsulfuron 2 ng/ml); 83 in assay [1] (N.t./p152 (pAGS152, S4/Hra subclone), Chlorsulfuron 2 ng/ml); 0 in assay [1] (N.t./p313 (pAGS313, C3 subclone, φ31 orientation 2), Chlorsulfuron 2 ng/ml); 32 in assay [1] (N.t./p351 (pAGS351, C3 subclone, φ35), Chlorsulfuron 2 ng/ml); 18 in assay [1] (N.t./p381 (pAGS381, C3 subclone, φ38), Chlorsulfuron 2 ng/ml). Besides, the “resistance of kanamycin resistant sectors” value in the assay on alfalfa callus (chlorsulfuron at 50 ppb) is given as “resistant”. Further, the “chlorsulfuron concentration at which transformant tissue was able to grow” value in the assay on alfalfa callus (one transformant) is listed as 1000 ppb; in the assay with alfalfa callus (the other two transformants), 5000 ppb.
